These results are taken from ChEMBL document CHEMBL3400015, “Tertiary amides of Salinomycin: A new group of antibacterial agents against Bacillus anthracis and methicillin-resistant Staphylococcus epidermidis” (Bioorg Med Chem Lett, 2015).

The term MIC denotes the lowest concentration found to suppress growth. Low readings indicate a more susceptible organism, high ones a less susceptible organism.

In brackets after ≈: the same amount, converted by molar mass. Activity calls are given as the source filed them. No cut-off for these calls is given here. A value given as a limit tells only on which side of the number the result lay.

In assay [1] the test system is Staphylococcus epidermidis. Kind of assay: Inhibition of Staphylococcus epidermidis isolate 407/10 biofilm formation at 1 to 32 ug/ml after 24 hrs by MTT assay. The class given is functional, organism-based. On the technique in general: Formazan colour is commonly taken as a measure of viable cells.
For assay [2], the system named is Staphylococcus epidermidis. Description: Antimicrobial activity against methicillin-resistant Staphylococcus epidermidis isolate 403/10 after 18 hrs by twofold serial broth dilution method. Particulars: isolate 403/10, 18 h. The class given is functional. For orientation: Broth dilution looks for growth in wells or tubes with falling amounts of substance.
Assay [3] relates to Staphylococcus epidermidis. Description: Antimicrobial activity against methicillin-resistant Staphylococcus epidermidis isolate 455/11 after 18 hrs by twofold serial broth dilution method. The format is functional. Particulars: isolate 455/11, 18 h.
The test system of assay [4] is Staphylococcus epidermidis. Kind of assay: Inhibition of Staphylococcus epidermidis isolate 469/11 biofilm formation at 1 to 32 ug/ml after 24 hrs by MTT assay. The format is functional, organism-based.
For assay [5], the system named is Staphylococcus epidermidis. Description: Bactericidal activity against methicillin-resistant Staphylococcus epidermidis isolate 404/10 after 24 hrs. The class given is functional. Particulars: isolate 404/10, 24 h, read-out: MBC99.9.
The test system of assay [6] is Staphylococcus epidermidis. Kind of assay: Bactericidal activity against Staphylococcus epidermidis ATCC 12228 after 24 hrs. The format is functional. Particulars: ATCC 12228, 24 h, read-out: MBC99.9.
The subject of assay [7] is Staphylococcus epidermidis. Description: Antimicrobial activity against methicillin-resistant Staphylococcus epidermidis isolate 405/10 after 18 hrs by twofold serial broth dilution method. The format is functional. The following applies: isolate 405/10, 18 h.
For assay [8], the system named is Staphylococcus epidermidis. Kind of assay: Antimicrobial activity against methicillin-resistant Staphylococcus epidermidis isolate 457/11 after 18 hrs by twofold serial broth dilution method. Particulars: isolate 457/11, 18 h. The class given is functional.
The test system of assay [9] is Staphylococcus epidermidis. Kind of assay: Bactericidal activity against methicillin-resistant Staphylococcus epidermidis isolate 459/11 after 24 hrs. Particulars: isolate 459/11, 24 h, read-out: MBC99.9. The format is functional.
Assay [10] has as its system Staphylococcus epidermidis. Kind of assay: Inhibition of Staphylococcus epidermidis isolate 461/11 biofilm formation at 1 to 32 ug/ml after 24 hrs by MTT assay. The format is functional, organism-based.
Assay [11] has as its system Staphylococcus epidermidis. Description: Bactericidal activity against methicillin-resistant Staphylococcus epidermidis isolate 458/11 after 24 hrs. The format is functional. The following applies: isolate 458/11, 24 h, read-out: MBC99.9.
For assay [12], the system named is Staphylococcus epidermidis. Description: Bactericidal activity against methicillin-resistant Staphylococcus epidermidis isolate 455/11 after 24 hrs. The format is functional. The following applies: isolate 455/11, 24 h, read-out: MBC99.9.
In assay [13] the test system is Staphylococcus epidermidis. Kind of assay: Inhibition of Staphylococcus epidermidis ATCC 35984 biofilm formation at 1 to 32 ug/ml after 24 hrs by MTT assay. The format is functional, organism-based.
For assay [14], the system named is Staphylococcus epidermidis. Description: Antimicrobial activity against Staphylococcus epidermidis ATCC 35984 after 18 hrs by twofold serial broth dilution method. The following applies: ATCC 35984, 18 h. The class given is functional.
In another assay the test system is Staphylococcus aureus. Kind of assay: Antimicrobial activity against Staphylococcus aureus ATCC 6538 after 18 hrs by twofold serial broth dilution method. The class given is functional. The following applies: ATCC 6538, 18 h.
The test system of assay [15] is Staphylococcus epidermidis. Kind of assay: Inhibition of Staphylococcus epidermidis isolate 409/10 biofilm formation at 1 to 32 ug/ml after 24 hrs by MTT assay. The class given is functional, organism-based.
Assay [16] concerns Staphylococcus epidermidis. Kind of assay: Inhibition of Staphylococcus epidermidis ATCC 12228 biofilm formation at 1 to 32 ug/ml after 24 hrs by MTT assay. The format is functional, organism-based.
Assay [17] deals with Staphylococcus epidermidis. Kind of assay: Antimicrobial activity against methicillin-resistant Staphylococcus epidermidis isolate 460/11 after 18 hrs by twofold serial broth dilution method. The class given is functional. The following applies: isolate 460/11, 18 h.
In the next assay the test system is Escherichia coli. Description: Bactericidal activity against Escherichia coli ATCC 25922 after 24 hrs. Particulars: ATCC 25922, 24 h, read-out: MBC99.9. The class given is functional.
Assay [18] deals with Staphylococcus epidermidis. Kind of assay: Bactericidal activity against methicillin-resistant Staphylococcus epidermidis isolate 403/10 after 24 hrs. The class given is functional. Particulars: isolate 403/10, 24 h, read-out: MBC99.9.

Take `O=C(O)c1cn(C2CC2)c2cc(N3CCNCC3)c(F)cc2c1=O` [CIPROFLOXACIN]: the inhibition result in assay [1], in assay [4], in assay [10], in assay [13], in [15] and in assay [16] was “Active” in each case. Also, the minimum inhibitory concentration (MIC) in assay [2] came out at 8 µg/mL (≈ 24.1 µM); in assay [3], 32 µg/mL (≈ 96.6 µM); in [7] it was 2 µg/mL (≈ 6.04 µM); in assay [8], 32 µg/mL (≈ 96.6 µM); in [14], 0.125 µg/mL (≈ 0.377 µM); against Staphylococcus aureus, 0.25 µg/mL (≈ 0.754 µM). Further, the MIC in [17] was 0.125 µg/mL (≈ 0.377 µM). The MBC in assay [5] was > 256 µg/mL; in assay [6], 1 µg/mL (≈ 3.02 µM); in [9], > 256 µg/mL; in [11] it was > 256 µg/mL; in assay [12], > 256 µg/mL; in the assay with Escherichia coli, 0.0016 µg/mL (≈ 0.00483 µM). Also, in assay [18], the MBC was determined as 128 µg/mL (≈ 386 µM).
